Assay: Cell viability assay (CellTiter-Glo)
Format: cell-based
Settings: human; HEK293T, 72 hour treatment; read-out: IC50 cell viability
Protocol: In 96-well round-bottom plates, sorbitol -synchronized cultures of ring-stage NF54 P. falciparum parasites were established in triplicate and treated with varying concentrations of the inhibitors (25-0.0038 μM) serially diluted in complete medium. Parasite proliferation rates were analyzed after 72 h using the Renilla-Glo Luciferase Assay, and luminescence was measured using the GloMax® Discover Microplate Reader. EC 50 values were obtained from corrected dose-response curves using GraphPad Prism (version 5; GraphPad Software). Data represent the mean % luminescence relative to 5% DMSO-treated (vehicle, 100% growth) and 100 nM chloroquine-treated (no growth) controls.
In black, clear-bottom 96-well plates (No. 3904 Corning Life Sciences), HEK293T cells were plated at 2x10^5 cells/mL in DMEM high glucose, pyruvate media (ThermoFisher Scientific, cat. 11995073) supplemented with 10% FBS and 1% pen -strep (100 μL final volume). Cells were incubated overnight at 37°C, 5% CO2. Using a Tecan D300e digital dispenser, cells were dosed in triplicate […]
concentration, 100 mM stock in DMSO) and Carfilzomib (10 µM to 4.6 nM final concentration, 10 mM stock in DMSO) normalizing DMSO to 0.25%. Cells were then incubated at 37 °C, 5% CO2 for 72 hours. Following incubation, cells were treated with 70 µL CellTiter-Glo® Luminescent Cell Viability Assay Reagent (Promega, cat. G7570) and incubated in the dark at room temperature for 30 minutes. Plates were read using an EnVision Multimode Plate Reader (PerkinElmer). Cell viability data was normalized to DMSO controls and analyzed in GraphPad Prism 8 by fitting the data to “[Inhibitor] vs. normalized response – variable slope” model to obtain the curves.
Each compound was prepared in duplicate at 1 µM final concentration (0.2% DMSO) in human or mouse plasma (Aldrich). […]
After quenching, samples were centrifuged to pellet precipitated partic ulates and an aliquot of supernatant was diluted 1:1 with water. The resulting solution was analyzed by UPLC -MS/MS with compounds detected by MRM detection on a triple quadrupole mass spectrometer. […]

Question: With `C=CC(=O)Nc1ccccc1[C@@H](CCc1ccc(OC)c(OC)c1)OC(=O)[C@@H]1CCCCN1C(=O)C(=O)C(C)(C)CC` [1c] as the compound, how does the IC50 at 72 h read?
Answer: 75 µM

From paper PMC7667655, “Targeted Covalent Inhibition of Plasmodium FK506 Binding Protein 35” (ACS Medicinal Chemistry Letters, 2020)
